# Results taken from patent EP2647634A1, “Indole-pyrimidine derivatives and their therapeutic uses” (NOSCIRA, S.A., priority 2012, dated 2013).
# Experiments:
# [1] = target: T1, Human recombinant Cdk5/p35 heterodimer (Homo sapiens, UniProt Q00535); experiment: Cdk5 assay (luminescent detection of ADP, ADP Glo); type: biochemical; details: 10 nM enzyme, 10 µM ATP, 2 µM histone H1, 40 min incubation
# T1 construct: purchased Life Technologies
# Method: (§1) The enzymatic activity of Cdk5 is determined with a commercial system, available from Promega (Madison, WI, USA) based on the luminescent detection of ADP, the byproduct of the kinase reaction. Human recombinant Cdk5/p35 heterodimer (purchased from Life Technologies, Carlsbad, CA, USA) is used as the enzyme source. At the end of the enzymatic reaction the remaining ATP is destroyed and afterwards the ADP produced during the kinase reaction is converted into ATP, which is further converted into light using a suitable luciferase. Therefore, the luminescent signal positively correlates with kinase activity. The assay is performed in 96-well conical bottom black plates, in a final volume of 12 µl with 10 nM enzyme concentration in 40 mM Tris-HCl pH 7.4, 20 mM MgCl2 and 0.01% bovine serum albumin using 10 µM ATP and 2 µM substrate. […] The assay is carried out in the presence of different concentrations of the tested compound, at a final 1% (v/v) DMSO concentration. After a 40 min incubation, at room temperature, 12 µl of a commercial "ADP Glo" solution (from Promega) is added to remove the remaining ATP and a subsequent 40 min incubation at room temperature is performed before adding 24 µl of a suitable "detection reagent" (also supplied by Promega) needed to carry out the transformation of ADP into ATP and its conversion into light by the luciferase enzyme included in the reagent. After a final 30 min incubation at room temperature luminescence is monitored in a suitable plate reader. […] For that purpose the data were fitted to a version of the classical 4-parameters isotherm equation using the nonlinear regression function of GraphPad™ Prism 5.0 (GraphPad Software Inc.).
# [2] = target: T2, Human recombinant GSK-3β (Homo sapiens, UniProt P49841); experiment: GSK-3β assay (luminescent detection of ADP); type: biochemical; details: 4 nM enzyme, 5 µM ATP, 15 µM substrate peptide, 40 min incubation
# T2 construct: purchased Millipore
# T2 sequence (P49841 whole entry): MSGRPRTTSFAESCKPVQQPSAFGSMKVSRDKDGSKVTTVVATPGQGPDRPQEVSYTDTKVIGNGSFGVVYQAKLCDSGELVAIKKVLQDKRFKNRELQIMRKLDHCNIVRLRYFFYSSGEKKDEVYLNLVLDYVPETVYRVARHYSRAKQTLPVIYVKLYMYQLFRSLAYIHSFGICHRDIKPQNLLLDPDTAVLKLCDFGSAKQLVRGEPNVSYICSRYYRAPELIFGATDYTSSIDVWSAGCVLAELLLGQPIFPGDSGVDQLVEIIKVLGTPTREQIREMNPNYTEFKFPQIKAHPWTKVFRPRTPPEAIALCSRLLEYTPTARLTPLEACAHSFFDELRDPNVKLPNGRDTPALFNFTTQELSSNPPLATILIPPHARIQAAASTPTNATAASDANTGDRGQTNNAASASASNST
# Method: as §1
# The enzymatic activity of GSK-3β is determined with the same commercial system described above based on the luminescent detection of ADP. Human recombinant GSK-3β (purchased from Millipore) is used as the enzyme source. […] The assay is carried out in the presence of different concentrations of the tested compound at a final 1% (v/v) DMSO concentration.
# [3] = target: T3, Human recombinant CK1ε (Homo sapiens, UniProt P49674); experiment: CK1ε assay (luminescent detection of ADP); type: biochemical; details: 10 nM enzyme, 50 µM ATP, 50 µM substrate peptide, 40 min incubation
# T3 construct: purchased Life Technologies
# T3 sequence (P49674 whole entry): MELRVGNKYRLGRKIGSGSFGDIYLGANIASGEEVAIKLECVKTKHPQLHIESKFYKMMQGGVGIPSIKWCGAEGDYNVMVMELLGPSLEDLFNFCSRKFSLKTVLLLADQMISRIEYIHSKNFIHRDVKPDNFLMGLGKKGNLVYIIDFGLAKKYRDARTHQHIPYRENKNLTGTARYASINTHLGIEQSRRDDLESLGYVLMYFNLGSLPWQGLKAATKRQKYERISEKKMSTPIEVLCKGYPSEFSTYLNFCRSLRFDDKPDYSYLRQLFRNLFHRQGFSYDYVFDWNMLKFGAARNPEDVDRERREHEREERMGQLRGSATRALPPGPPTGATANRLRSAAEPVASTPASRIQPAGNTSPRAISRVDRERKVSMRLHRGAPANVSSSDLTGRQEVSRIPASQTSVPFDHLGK
# Method: as §1
# The enzymatic activity of CK1ε is determined with the same commercial system described above based on the luminescent detection of ADP. Human recombinant CK1ε (purchased from Life Technologies) is used as the enzyme source. The assay is performed in 96-well conical bottom black plates, in a final volume of 12 µl with 10 nM enzyme concentration in 40 mM Tris-HCl pH 7.4, 20 mM MgCl2 and 0.01% bovine serum albumin using 50 µM ATP and 50 µM substrate peptide. The latter is a synthetic peptide provided by AnaSpec (Fremont, CA, USA) under the commercial name "CK1 peptide substrate" and it is based on the sequence of rabbit muscle glycogen synthase with Ser7 phosphorylated (the exact sequence of the peptide is KRRRAL(pS)VASLPGL, where (pS) denotes phospho-Ser). The assay is carried out in the presence of different concentrations of the tested compound at a final 1% (v/v) DMSO concentration.
# [4] = test system: phosphorylation at the Ser-396 residue of Tau protein in human neuroblastoma SH-SY5Y cells; experiment: Cellular assay: phosphorylation at Ser-396 of Tau protein (ELISA); type: cell-based; details: 16 h incubation with compound, read-out: pSer396-Tau 16h pEC50 average (converted)
# Method: The effect of the compounds in cells is determined by monitoring the level of phosphorylation at the Ser-396 residue of Tau protein in human neuroblastoma SH-SY5Y cells. Cells are grown in 96-well plates, 30,000 cells per well in a volume of 100 µl of 1:1 MEM:Ham's F12 medium including 10% (v/v) fetal bovine serum, 100 U/ml penicillin, 100 µg/ml streptomycin and 1% (v/v) 100-fold concentrated commercial stock of non-essential aminoacids (Gibco, Carlsbad, CA, USA), and incubated at 37°C during 24 h. Then, the corresponding amount of test compound is added to the wells to reach the desired concentration in 1% (v/v) DMSO. The system is incubated at 37°C during 16 h and afterwards cells are harvested, washed with phosphate buffer saline and incubated during 30 min on ice with 120 µl per well of "lysis buffer" (10 mM Tris-HCl pH 7.4, 100 mM NaCl, 1 mM EDTA, 2 mM sodium orthovanadate, 1% (v/v) Triton X-100, 10% (v/v) glycerol, 0.1% (w/v) sodium dodecyl sulfate, 0.5 % (w/v) sodium deoxycholate, 4% (v/v) 25-fold concentrated commercial stock of protease inhibitors (Roche, Basel, Switzerland) and 1 mM phenylmethylsulfonyl fluoride). 60 µl of this mixture is then placed in an empty 96-well plate and the levels of Ser-396 phosphorylation are determined using a commercial ELISA kit (Biosource, Carlsbad, CA, USA) following manufacturer's instructions. The levels of phosphrylation are expressed as percentage values after normalizing them to those in untreated cells and those values are used to calculate the pEC50s as described above.
# T1 sequence (Q00535 whole entry): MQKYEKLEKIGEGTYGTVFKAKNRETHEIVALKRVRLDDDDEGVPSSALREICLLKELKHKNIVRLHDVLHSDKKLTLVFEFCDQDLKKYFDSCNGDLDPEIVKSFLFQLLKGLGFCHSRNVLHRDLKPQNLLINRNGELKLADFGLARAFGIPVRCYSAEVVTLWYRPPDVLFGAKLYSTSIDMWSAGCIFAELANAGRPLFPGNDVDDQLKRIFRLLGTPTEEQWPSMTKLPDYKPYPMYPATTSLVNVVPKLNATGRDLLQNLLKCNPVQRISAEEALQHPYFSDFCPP
# T1 sequence (Q15078 whole entry partner): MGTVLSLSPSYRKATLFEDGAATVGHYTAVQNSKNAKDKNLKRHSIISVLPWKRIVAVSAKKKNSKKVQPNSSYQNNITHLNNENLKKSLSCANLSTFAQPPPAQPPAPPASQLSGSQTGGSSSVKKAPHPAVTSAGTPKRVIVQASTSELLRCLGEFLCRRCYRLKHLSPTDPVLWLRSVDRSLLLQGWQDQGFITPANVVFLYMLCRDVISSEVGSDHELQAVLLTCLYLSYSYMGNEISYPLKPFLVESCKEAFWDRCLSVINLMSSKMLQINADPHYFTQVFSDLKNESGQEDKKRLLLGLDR
EC50 ([1]; read-out: Cdk5 inhibition pEC50 average (converted)) [nM],EC50 ([2]; read-out: GSK3β inhibition pEC50 average (converted)) [nM],EC50 ([3]; read-out: CK1 inhibition pEC50 average (converted)) [nM],Compound,Cdk5 inhibition pEC50 average [1],GSK3β inhibition pEC50 average [2],CK1 inhibition pEC50 average [3],EC50 [4] [nM]
,,,"Nc1nccc(-c2c(O)[nH]c3ccc(Cl)cc23)n1 [Compound 5, 3-(2-Amino-4-pyrimidinyl) -5-Chloro-2-oxoindole]",8.8,7.9,6.7,316
,,,"Nc1nccc(-c2c(O)[nH]c3ccc([N+](=O)[O-])cc23)n1 [Compound 6, 3-(2-Amino-4-pyrimidinyl) -5-Nitro-2-oxoindole]",6.9,6.7,4.7,10000
,,,"Nc1nccc(-c2c(O)[nH]c3ccc(F)cc23)n1 [Compound 4, 3-(2-Amino-4-pyrimidinyl) -5-Fluoro-2-oxoindole]",7.5,7.5,6.5,1260
,,,"COC(=O)c1ccc2c(-c3ccnc(N)n3)c(O)[nH]c2c1 [Compound 7, 3-(2-Amino-4-pyrimidinyl) -2-oxoindole-6-carboxylic acid methyl ester]",6.8,6.6,5.9,
,,,"CS(=O)(=O)c1ccc2c(-c3ccnc(N)n3)c(O)[nH]c2c1 [Compound 2, 3-(2-Amino-4-pyrimidinyl) -6-methanesulfonyl-2-oxoindole]",6.7,5.3,5.4,
,,,"Nc1nccc(-c2c(O)[nH]c3ccc(F)c(F)c23)n1 [Compound 8, 3-(2-Amino-4-pyrimidinyl)-4,5-difluoro-2-oxoindol]",7.6,7.6,< 4,
,,,"Nc1nccc(-c2c(O)[nH]c3ccccc23)n1 [Compound 1, 3-(2-Amino-4-pyrimidinyl)-2-oxoindole]",8.2,6.9,6.1,
501,398,3160,"Cc1cc(-c2c(O)[nH]c3ccccc23)nc(N)n1 [Comparative example, reference compound]",,,,
,,,"Nc1nccc(-c2c(O)[nH]c3ccc(Br)cc23)n1 [Compound 3, 3-(2-Amino-4-pyrimidinyl)-5-Bromo-2-oxoindole]",8.3,7.8,6.1,
